Counter-ions that a name gives are not always drawn.
target: T1, human recombinant ENPP1 (Homo sapiens, UniProt P22413); assay: ENPP1 enzyme assay with cGAMP substrate (AMP-Glo luminescence); assay type: biochemical; conditions: human recombinant ENPP1 3 ng/reaction, cGAMP 5 μM, 37° C. 90 minutes, read-out: Enzymatic activity (ENPP1 IC50)
T1 construct: purchased R & D systems
T1 sequence (P22413 1-925): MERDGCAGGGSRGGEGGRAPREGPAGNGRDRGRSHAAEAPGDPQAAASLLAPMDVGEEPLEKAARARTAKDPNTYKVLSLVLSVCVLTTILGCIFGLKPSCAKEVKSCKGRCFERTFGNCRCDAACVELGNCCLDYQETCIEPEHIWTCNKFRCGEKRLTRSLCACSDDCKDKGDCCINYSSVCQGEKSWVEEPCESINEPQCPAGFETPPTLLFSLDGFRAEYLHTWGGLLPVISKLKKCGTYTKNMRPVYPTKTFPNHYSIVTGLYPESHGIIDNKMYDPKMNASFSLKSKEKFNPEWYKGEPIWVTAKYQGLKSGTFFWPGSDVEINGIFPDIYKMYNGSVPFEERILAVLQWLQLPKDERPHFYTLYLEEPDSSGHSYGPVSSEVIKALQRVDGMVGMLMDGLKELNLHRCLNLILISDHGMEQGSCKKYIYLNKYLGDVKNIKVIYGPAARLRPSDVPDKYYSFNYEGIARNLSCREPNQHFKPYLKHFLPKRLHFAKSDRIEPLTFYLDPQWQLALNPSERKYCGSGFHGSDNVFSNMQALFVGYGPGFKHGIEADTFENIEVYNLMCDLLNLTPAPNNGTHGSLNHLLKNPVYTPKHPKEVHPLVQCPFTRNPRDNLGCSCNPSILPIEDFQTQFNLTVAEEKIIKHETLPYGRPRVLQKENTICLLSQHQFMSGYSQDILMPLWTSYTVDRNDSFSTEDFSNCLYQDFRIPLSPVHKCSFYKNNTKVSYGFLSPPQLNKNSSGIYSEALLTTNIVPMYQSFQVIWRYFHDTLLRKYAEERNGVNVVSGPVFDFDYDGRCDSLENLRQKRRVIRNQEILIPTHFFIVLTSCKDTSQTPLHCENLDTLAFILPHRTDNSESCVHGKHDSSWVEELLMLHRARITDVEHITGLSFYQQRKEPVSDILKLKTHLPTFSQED
Description: ENPP1 hydrolyzes nucleotides or nucleotide derivatives to produce nucleoside -5′-monophosphate and pyrophosphate. in addition, ENPP1 hydrolyzes 2′,3′-cGAMP to produce 5′-adenosine monophosphate (AMP) and 5′-guanosine monophosphate (GMP). AMP produced from the reaction is measured using the AMP-Glo® kit (Promega). The AMP-Glo® kit contains two reagents. The first reagent terminates the AMP-producing enzymatic reaction, removes ATP and converts the produced AMP into ADP. The second reagent converts ADP to ATP which is used to generate luminescence in the luciferase reaction. The amount of luminescence measured is proportional to the amount of AMP produced by ENPP1.
The final reaction mixture contains 50 mM Tris (pH 8.5) buffer, 250 mM NaCl, 0.5 mM. CaCl2, 1 μM ZnCl2, 5% glycerol and 1% DMSO. […] The reaction was initiated by addition of cGAMP (at a final concentration of 5 μM) and reacted at 37° C. for 90 minutes. At the end of the reaction, 10 μl of the AMP-Glo first reagent was added to stop the reaction and the result was stored at room temperature for […]. After storage, 20 μl of an AMP detection solution (a mixture of AMP-Glo II reagent and Kinase-Gio at a ratio of 1:100) was added and stored at room. temperature for 1 hour. Luminescence signals were measured using a Victor® plate reader (Perkin Elmer). The maximal activity control (containing enzymes and substrates only in the presence of 1% DMSO; MAX) and the minimal activity control (containing substrates and 1% DMSO; MIN) were evaluated simultaneously. In each experiment, serially diluted reference ENPP1 inhibitors were tested together. IC50, indicating % residual activity versus compound concentration was determined by fitting inhibition curves using the 3-parameter analysis of GraphPad Prism® software. Serially diluted samples of one compound were tested two or more times and an average IC50 of each compound was calculated.

Row | Structure (SMILES) | IC50 [µM]
1 | O=c1[nH]nc(-c2ccccc2)c2ccccc12 [Compound No. 1, 4-phenylphthalazin-1(2H)-one] | 1 to 10
2 | CC(C)(C)OC(=O)Nc1cccc(-c2n[nH]c(=O)c3ccccc23)c1 [Compound No. 2, tert-butyl (3-(4-oxo-3,4-dihydrophthalazin-1-yl)phenyl)carbamate] | > 10
3 | CC(C)(C)OC(=O)Nc1cccc(-c2nn(Cc3ccccc3)c(=O)c3ccccc23)c1 [Compound No. 4, tert-butyl (3(3-benzyl-4-oxo-3,4-dihydrophthalazin-1-yl)phenyl)carbamate] | > 10
4 | CC(C)(C)OC(=O)NCc1cccc(-c2n[nH]c(=O)c3ccccc23)c1 [Compound No. 5] | > 10
5 | CC(C)(C)OC(=O)NCc1ccc(-c2n[nH]c(=O)c3ccccc23)cc1C(F)(F)F [Compound No. 24, tert-butyl 4-(4-oxo-3,4-dihydrophthalazin-1-yl)-2-(trifluoromethyl)benzyl carbamate] | > 10
6 | CC(C)(C)OC(=O)N1CCc2cc(-c3n[nH]c(=O)c4ccccc34)ccc2C1 [Compound No. 26, tert-butyl 6-(4-oxo-3,4-dihydrophthalazin-1-yl)-3,4-dihydroisoquinoline-2(1H)-carboxylate] | > 10
7 | COc1cc2c(-c3ccc4c(c3)CCN(C(=O)OC(C)(C)C)C4)n[nH]c(=O)c2cc1OC [Compound No. 28, tert-butyl 6-(6,7-dimethoxy-4-oxo-3,4-dihydrophthalazin-1-yl)-3,4-dihydroisoquinoline-2(1H)-carboxylate] | > 10
8 | COc1cc2c(-c3ccc4c(c3)CCN(C(=O)OC(C)(C)C)C4)nn(C)c(=O)c2cc1OC [Compound No. 29, tert-butyl-6-(6,7-dimethoxy-3-methyl-4-oxo-3,4-dihydrophthalazin-1-yl)-3,4-dihydroisoquinoline-2(1H)-carboxylate] | > 10
9 | Nc1cccc(-c2n[nH]c(=O)c3ccccc23)c1 [Compound No. 30, 4-(3-aminophenyl)phthalazin-1(2H)-one hydrochloride] | > 10
10 | Cn1nc(-c2cccc(N)c2)c2ccccc2c1=O [Compound No. 31, 4-(3-aminophenyl)-2-methylphthalazin-1(2H)-one hydrochloride] | > 10
11 | Nc1cccc(-c2nn(Cc3ccccc3)c(=O)c3ccccc23)c1 [Compound No. 32, 4-(3-aminophenyl)-2-benzylphthalazin-1(2H)-one hydrochloride] | > 10
12 | NCc1cccc(-c2n[nH]c(=O)c3ccccc23)c1 [Compound No. 33, 4-(3-(aminomethyl)phenyl)phthalazin-1(2H)-one hydrochloride] | > 10
13 | NCc1cccc(-c2nn(Cc3ccccc3)c(=O)c3ccccc23)c1 [Compound No. 35, 4-(3-(aminomethyl)phenyl)-2-benzylphthalazin-1(2H)-one hydrochloride] | > 10
14 | CCn1nc(-c2ccc(CN)cc2)c2ccccc2c1=O [Compound No. 38, 4-(4-(aminomethyl)phenyl)-2-ethylphthalazin-1(2H)-one hydrochloride] | < 1
15 | CC(C)n1nc(-c2ccc(CN)cc2)c2ccccc2c1=O [Compound No. 39, 4-(4-(aminomethyl)phenyl)-2-isopropylphthalazin-1-(2H)-one hydrochloride] | > 10
16 | NCc1ccc(-c2nn(-c3ccccc3)c(=O)c3ccccc23)cc1 [Compound No. 40, 4-(4-aminomethyl)phenyl)-2-phenylphthalazin-1(2H)-one hydrochloride] | 1 to 10
17 | NCc1ccc(-c2nn(Cc3ccccc3)c(=O)c3ccccc23)cc1 [Compound No. 41, 4-(4-aminomethyl)phenyl)-2-benzylphthalazin-1(2H)-one hydrochloride] | 1 to 10
18 | NCc1ccc(-c2nn(Cc3ccc(F)cc3)c(=O)c3ccccc23)cc1 [Compound No. 42, 4-(4-(aminomethyl)phenyl)-2-(4-fluorobenzyl)phthalazin-1(2H)-one hydrochloride] | 1 to 10
19 | COc1ccc2c(=O)[nH]nc(-c3ccc(CN)cc3)c2c1 [Compound No. 43, 4-(4-(aminomethyl)phenyl)-6-methoxyphthalazin-1(2H)-one hydrochloride] | < 1

The remaining lines, values ahead:

Row | IC50 [µM] | Structure (SMILES)
20 | > 10 | Cn1nc(-c2cccc(NC(=O)OC(C)(C)C)c2)c2ccccc2c1=O [Compound No. 3, tert-butyl (3(3-methyl-4-oxo-3,4-dihydrophthalazin-1-yl)phenyl)carbamate]
21 | > 10 | Cn1nc(-c2cccc(CNC(=O)OC(C)(C)C)c2)c2ccccc2c1=O [Compound No. 6, tert-butyl 3-(3-methyl-4-oxo-3,4-dihydrophthalazin-1-yl) benzyl carbamate]
22 | > 10 | Cn1nc(-c2ccc(CNC(=O)OC(C)(C)C)cc2)c2ccccc2c1=O [Compound No. 9]
23 | > 10 | CCn1nc(-c2ccc(CNC(=O)OC(C)(C)C)cc2)c2ccccc2c1=O [Compound No. 10, tert-butyl (4-(3-ethyl-4-oxo-3,4-dihydrophthalazin-1-yl)benzyl)carbamate]
24 | > 10 | CC(C)(C)OC(=O)NCc1ccc(-c2nn(-c3ccccc3)c(=O)c3ccccc23)cc1 [Compound No. 12, tert-butyl (4-(4-oxo-3-phenyl-3,4-dihydrophthalazin-1-yl)benzyl)carbamate]
25 | > 10 | CC(C)(C)OC(=O)NCc1ccc(-c2nn(Cc3ccccc3)c(=O)c3ccccc23)cc1 [Compound No. 13]
26 | > 10 | CC(C)(C)OC(=O)NCc1ccc(-c2nn(Cc3ccc(F)cc3)c(=O)c3ccccc23)cc1 [Compound No. 14, tert-butyl (4-(3-(4-fluorobenzyl)-4-oxo-3,4-dihydrophthalazin-1-yl)benzyl)carbamate]
27 | > 10 | COc1ccc2c(=O)[nH]nc(-c3ccc(CNC(=O)OC(C)(C)C)cc3)c2c1 [Compound No. 15, tert-butyl (4-(7-methoxy-4-oxo-3,4-dihydrophthalazin-1-yl)benzyl)carbamate]
28 | > 10 | COc1ccc2c(-c3ccc(CNC(=O)OC(C)(C)C)cc3)nn(C)c(=O)c2c1 [Compound No. 18, tert-butyl (4-(6-methoxy-3-methyl-4-oxo-3,4-dihydrophthalazin-1-yl)benzyl)carbamate]
29 | > 10 | COc1cc2c(-c3ccc(CNC(=O)OC(C)(C)C)cc3)nn(C)c(=O)c2cc1OC [Compound No. 20, tert-butyl (4-(6,7-dimethoxy-3-methyl-4-oxo-3,4-dihydrophthalazin-1-yl)benzyl)carbamate]
30 | > 10 | Cn1nc(-c2ccc3c(c2)CCN(C(=O)OC(C)(C)C)C3)c2ccccc2c1=O [Compound No. 27, tert-butyl-6-(3-methyl-4-oxo-3,4-dihydrophthalazin-1-yl)-3,4-dihydroisoquinoline-2(1H)-carboxylate]
31 | < 1 | Cn1nc(-c2ccc(CN)cc2)c2ccccc2c1=O [Compound No. 37, 4-(4-aminomethyl)phenyl)-2-methylphthalazin-1(2H)-one hydrochloride]
32 | 1 to 10 | COc1ccc2c(=O)n(C)nc(-c3ccc(CN)cc3)c2c1 [Compound No. 44, (4-(7-methoxy-3-methyl-4-oxo-3,4-dihydrophthalazin-1-yl)phenyl)methanaminium chloride]
33 | > 10 | COc1ccc2c(-c3ccc(CN)cc3)nn(C)c(=O)c2c1 [Compound No. 46, 4-(4-(aminomethyl)phenyl)-7-methoxy-2-methylphthalazin-1(2H)-one hydrochloride]
